Results on 19 compounds are retold here after patent US6664241B2, “Water-soluble amide derivatives of polyene macrolides and preparation and uses thereof” (Micrologix Biotech Inc., priority 2000, dated 2003).

One data set relates to C. albicans. Put plainly: Minimum Inhibitory Concentrations (MICs) against C. albicans, NCCLS M27-A broth dilution. It is filed as cell-based. As to conditions: Candida albicans, read-out: MIC. Here is the method:
For each compound synthesized, Minimum Inhibitory Concentrations (MICs) against C. albicans were determined as described in Reference Method for Broth Dilution Antifungal Susceptibility Testing of Yeasts, Approved Standard, NCCLS document M27-A (ISBN 1-56238-328-0), NCCLS, 940 West Valley Road, Suite 1400, Wayne, Pa. 19087, 1997.
(In general: Broth dilution looks for growth in wells or tubes with falling amounts of substance.)

Data set [1] is described as follows: Maximum non-lethal dose (NLD), single intravenous dose in mice. The class given is in vivo, Swiss-Webster male mice. The note with it: test compounds as aspartate salts in 5% mannitol, AmB as FUNGIZONE
The procedure: A variety of the compounds synthesized as described in Section 5, supra, were tested in various in vivo assays, as described below. The results of the various assays are provided in TABLE 3, presented at the end of this section. In all of the in vivo assays described, the test compounds, in the form of the aspartate salts, were formulated in an aqueous vehicle (5% mannitol in sterile water; OSMITROL, Baxter Healthcare, Deerfield, Ill.), followed by appropriate dilutions. The formulations were prepared fresh before dosing.
AmB and AME were also tested for comparison. For AmB, the commercially available FUNGIZONE (Bristol-Meyers Squibb Co.) was used. Reported values are based upon the weight of the AmB active ingredient, not on the basis of the weight of the FUNGIZONE powder. AME was formulated in OSMITROL as described for the test compounds.
Maximum non-lethal dose (NLD) data were obtained for selected compounds. A single intravenous dose was administered to each of four mice (Swiss-Webster male mice; Simonsen Laboratories, Gilroy, Calif.) in several groups. The doses selected were based upon the NLDs of compounds of similar structures. After review of findings, higher or lower doses were administered and a NLD was determined. The results are tabulated in TABLE 3, below (NLD Acute Mice). The values for AmB and AME are provided for comparison

≈ marks a conversion by molar mass, not a printed value.

A word on the MIC: it is the least concentration at which growth counts as inhibited. `CC1[C@H](C)OC(=O)C[C@H](O)C[C@H](O)CC[C@@H](O)[C@H](O)C[C@H](O)C[C@]2(O)C[C@H](O)C(C(=O)NN3CCN(C)CC3)C(C[C@@H](OC3O[C@H](C)[C@@H](O)[C@H](NC[C@@]4(O)OC[C@@H](O)[C@@H](O)[C@@H]4O)[C@@H]3O)/C=C/C=C/C=C/C=C/C=C/C=C/C=C/[C@H](C)[C@H]1O)O2` (some centres unmarked) [Compound 100]: the MIC in the data set on C. albicans was 2 µg/mL (≈ 1.69 µM).

In the case of `CC1[C@H](C)OC(=O)C[C@H](O)C[C@H](O)CC[C@@H](O)[C@H](O)C[C@H](O)C[C@]2(O)C[C@H](O)C(C(=O)NCCc3ccccn3)C(C[C@@H](OC3O[C@H](C)[C@@H](O)[C@H](NC[C@@]4(O)OC[C@@H](O)[C@@H](O)[C@@H]4O)[C@@H]3O)/C=C/C=C/C=C/C=C/C=C/C=C/C=C/[C@H](C)[C@H]1O)O2` (some centres unmarked) [Compound 101], the MIC with C. albicans is 4 µg/mL (≈ 3.36 µM).

In the case of `Cc1cc(NC(=O)C2C3C[C@@H](OC4O[C@H](C)[C@@H](O)[C@H](NC[C@@]5(O)OC[C@@H](O)[C@@H](O)[C@@H]5O)[C@@H]4O)/C=C/C=C/C=C/C=C/C=C/C=C/C=C/[C@H](C)[C@@H](O)C(C)[C@H](C)OC(=O)C[C@H](O)C[C@H](O)CC[C@@H](O)[C@H](O)C[C@H](O)C[C@](O)(C[C@@H]2O)O3)no1` (some centres unmarked) [Compound 102], the MIC with C. albicans came to 2.7 µg/mL (≈ 2.31 µM).

As to `CC1[C@H](C)OC(=O)C[C@H](O)C[C@H](O)CC[C@@H](O)[C@H](O)C[C@H](O)C[C@]2(O)C[C@H](O)C(C(=O)NCC(O)CO)C(C[C@@H](OC3O[C@H](C)[C@@H](O)[C@H](NC[C@@]4(O)OC[C@@H](O)[C@@H](O)[C@@H]4O)[C@@H]3O)/C=C/C=C/C=C/C=C/C=C/C=C/C=C/[C@H](C)[C@H]1O)O2` (some centres unmarked) [Compound 105], the MIC with C. albicans was 2 µg/mL (≈ 1.73 µM).

On to `CC1[C@H](C)OC(=O)C[C@H](O)C[C@H](O)CC[C@@H](O)[C@H](O)C[C@H](O)C[C@]2(O)C[C@H](O)C(C(=O)NN3CCN(C)CC3)C(C[C@@H](OC3O[C@H](C)[C@@H](O)[C@H](NC[C@@]4(O)OC[C@@H](O)[C@H](O)[C@@H]4O)[C@@H]3O)/C=C/C=C/C=C/C=C/C=C/C=C/C=C/[C@H](C)[C@H]1O)O2` (some centres unmarked) [Compound 108], for which, in the data set with C. albicans, the MIC came out at 4 µg/mL (≈ 3.38 µM).

As to `CC1[C@H](C)OC(=O)C[C@H](O)C[C@H](O)CC[C@@H](O)[C@H](O)C[C@H](O)C[C@]2(O)C[C@H](O)C(C(=O)NCCc3ccccn3)C(C[C@@H](OC3O[C@H](C)[C@@H](O)[C@H](NC[C@@]4(O)OC[C@@H](O)[C@H](O)[C@@H]4O)[C@@H]3O)/C=C/C=C/C=C/C=C/C=C/C=C/C=C/[C@H](C)[C@H]1O)O2` (some centres unmarked) [Compound 109], in the data set on C. albicans, the MIC came out at 2 µg/mL (≈ 1.68 µM).

With `CC1[C@H](C)OC(=O)C[C@H](O)C[C@H](O)CC[C@@H](O)[C@H](O)C[C@H](O)C[C@]2(O)C[C@H](O)C(C(=O)NCCc3ccccn3)C(C[C@@H](OC3O[C@H](C)[C@@H](O)[C@H](NC[C@@]4(O)OC[C@@H](O)[C@@H](OC5O[C@H](CO)[C@@H](O)[C@H](O)[C@H]5O)[C@@H]4O)[C@@H]3O)/C=C/C=C/C=C/C=C/C=C/C=C/C=C/[C@H](C)[C@H]1O)O2` (some centres unmarked) [Compound 116], in the data set on C. albicans, the MIC worked out at 8 µg/mL (≈ 5.91 µM).

In the case of `CC1[C@H](C)OC(=O)C[C@H](O)C[C@H](O)CC[C@@H](O)[C@H](O)C[C@H](O)C[C@]2(O)C[C@H](O)C(C(=O)NCC(O)C(O)C(O)C(O)CO)C(C[C@@H](OC3O[C@H](C)[C@@H](O)[C@H](NC[C@@]4(O)OC[C@@H](O)[C@@H](OC5O[C@H](CO)[C@@H](O)[C@H](O)[C@H]5O)[C@@H]4O)[C@@H]3O)/C=C/C=C/C=C/C=C/C=C/C=C/C=C/[C@H](C)[C@H]1O)O2` (some centres unmarked) [Compound 117], the MIC with C. albicans came out at 8 µg/mL (≈ 5.67 µM).

`CC1[C@H](C)OC(=O)C[C@H](O)C[C@H](O)CC[C@@H](O)[C@H](O)C[C@H](O)C[C@]2(O)C[C@H](O)C(C(=O)NCC(O)CO)C(C[C@@H](OC3O[C@H](C)[C@@H](O)[C@H](NC[C@@]4(O)OC[C@@H](O)[C@@H](OC5O[C@H](CO)[C@@H](O)[C@H](O)[C@H]5O)[C@@H]4O)[C@@H]3O)/C=C/C=C/C=C/C=C/C=C/C=C/C=C/[C@H](C)[C@H]1O)O2` (some centres unmarked) [Compound 119]: in the data set on C. albicans, the MIC came out at 8 µg/mL (≈ 6.05 µM).

For `CC1[C@H](C)OC(=O)C[C@H](O)C[C@H](O)CC[C@@H](O)[C@H](O)C[C@H](O)C[C@]2(O)C[C@H](O)C(C(=O)NCCN3CCCCC3)C(C[C@@H](OC3O[C@H](C)[C@@H](O)[C@H](NC[C@@]4(O)OC[C@@H](O)[C@@H](OC5O[C@H](CO)[C@@H](O)[C@H](O)[C@H]5O)[C@@H]4O)[C@@H]3O)/C=C/C=C/C=C/C=C/C=C/C=C/C=C/[C@H](C)[C@H]1O)O2` (some centres unmarked) [Compound 120], the MIC with C. albicans came out at 8 µg/mL (≈ 5.89 µM).

On to `CC1[C@H](C)OC(=O)C[C@H](O)C[C@H](O)CC[C@@H](O)[C@H](O)C[C@H](O)C[C@]2(O)C[C@H](O)C(C(=O)NCCc3cccs3)C(C[C@@H](OC3O[C@H](C)[C@@H](O)[C@H](NC[C@@]4(O)OC[C@@H](O)[C@@H](OC5O[C@H](CO)[C@@H](O)[C@H](O)[C@H]5O)[C@@H]4O)[C@@H]3O)/C=C/C=C/C=C/C=C/C=C/C=C/C=C/[C@H](C)[C@H]1O)O2` (some centres unmarked) [Compound 121], for which the MIC in the data set on C. albicans is 8 µg/mL (≈ 5.89 µM).

Turning to `CC1[C@H](C)OC(=O)C[C@H](O)C[C@H](O)CC[C@@H](O)[C@H](O)C[C@H](O)C[C@]2(O)C[C@H](O)C(C(=O)N[C@H]3C(O)O[C@H](CO)[C@@H](O)[C@@H]3O)C(C[C@@H](OC3O[C@H](C)[C@@H](O)[C@H](N)[C@@H]3O)/C=C/C=C/C=C/C=C/C=C/C=C/C=C/[C@H](C)[C@H]1O)O2` (some centres unmarked) [Compound 123], the MIC in the data set with C. albicans is 5.3 µg/mL (≈ 4.88 µM). Also, in data set [1], the NLD acute mice is 32 mg/kg.

For `CC1[C@H](C)OC(=O)C[C@H](O)C[C@H](O)CC[C@@H](O)[C@H](O)C[C@H](O)C[C@]2(O)C[C@H](O)C(C(=O)N[C@H]3C(O)O[C@H](CO)[C@H](O)[C@@H]3O)C(C[C@@H](OC3O[C@H](C)[C@@H](O)[C@H](N)[C@@H]3O)/C=C/C=C/C=C/C=C/C=C/C=C/C=C/[C@H](C)[C@H]1O)O2` (some centres unmarked) [Compound 124], the MIC with C. albicans was 1 µg/mL (≈ 0.921 µM). In data set [1], the NLD acute mice is 16 mg/kg.

For `CC1[C@H](C)OC(=O)C[C@H](O)C[C@H](O)CC[C@@H](O)[C@H](O)C[C@H](O)C[C@]2(O)C[C@H](O)C(C(=O)N[C@@H]3C(O)O[C@H](CO)[C@@H](O)[C@@H]3O)C(C[C@@H](OC3O[C@H](C)[C@@H](O)[C@H](N)[C@@H]3O)/C=C/C=C/C=C/C=C/C=C/C=C/C=C/[C@H](C)[C@H]1O)O2` (some centres unmarked) [Compound 125], the MIC with C. albicans was found to be 1 µg/mL (≈ 0.921 µM). Besides, the NLD acute mice in data set [1] was determined as 8 mg/kg.

For the compound `CC1[C@H](C)OC(=O)C[C@H](O)C[C@H](O)CC[C@@H](O)[C@H](O)C[C@H](O)C[C@]2(O)C[C@H](O)C(C(=O)NCC(O)C(O)C(O)C(O)CO)C(C[C@@H](OC3O[C@H](C)[C@@H](O)[C@H](N)[C@@H]3O)/C=C/C=C/C=C/C=C/C=C/C=C/C=C/[C@H](C)[C@H]1O)O2` (some centres unmarked) [Compound 126], the MIC in the data set on C. albicans was 3 µg/mL (≈ 2.76 µM).

On to `CC1[C@H](C)OC(=O)C[C@H](O)C[C@H](O)CC[C@@H](O)[C@H](O)C[C@H](O)C[C@]2(O)C[C@H](O)C(C(=O)N3CCOCC3)C(C[C@@H](OC3O[C@H](C)[C@@H](O)[C@H](NC[C@@]4(O)OC[C@@H](O)[C@@H](O)[C@@H]4O)[C@@H]3O)/C=C/C=C/C=C/C=C/C=C/C=C/C=C/[C@H](C)[C@H]1O)O2` (some centres unmarked) [Compound 131], for which the MIC in the data set with C. albicans turned out to be 4 µg/mL (≈ 3.46 µM). Besides, in data set [1], the NLD acute mice was 5 mg/kg.

With `CC1[C@H](C)OC(=O)C[C@H](O)C[C@H](O)CC[C@@H](O)[C@H](O)C[C@H](O)C[C@]2(O)C[C@H](O)C(C(=O)N3CCOCC3)C(C[C@@H](OC3O[C@H](C)[C@@H](O)[C@H](NC[C@@]4(O)OC[C@@H](O)[C@H](O)[C@@H]4O)[C@@H]3O)/C=C/C=C/C=C/C=C/C=C/C=C/C=C/[C@H](C)[C@H]1O)O2` (some centres unmarked) [Compound 137], in the data set with C. albicans, the MIC worked out at 2 µg/mL (≈ 1.73 µM). In addition, the NLD acute mice in data set [1] was found to be 5 mg/kg.

On to `CC1[C@H](C)OC(=O)C[C@H](O)C[C@H](O)CC[C@@H](O)[C@H](O)C[C@H](O)C[C@]2(O)C[C@H](O)C(C(=O)N3CCN(C)CC3)C(C[C@@H](OC3O[C@H](C)[C@@H](O)[C@H](NC[C@@]4(O)OC[C@@H](O)[C@@H](OC5O[C@H](CO)[C@H](O)[C@H](O)[C@H]5O)[C@@H]4O)[C@@H]3O)/C=C/C=C/C=C/C=C/C=C/C=C/C=C/[C@H](C)[C@H]1O)O2` (some centres unmarked) [Compound 146], for which, in the data set with C. albicans, the MIC amounted to 2 µg/mL (≈ 1.5 µM). Also, the NLD acute mice in data set [1] is reported as less than 7.5 mg/kg.

Consider `CC1[C@H](C)OC(=O)C[C@H](O)C[C@H](O)CC[C@@H](O)[C@H](O)C[C@H](O)C[C@]2(O)C[C@H](O)C(C(=O)N3CCN(CCO)CC3)C(C[C@@H](OC3O[C@H](C)[C@@H](O)[C@H](NC[C@@]4(O)OC[C@@H](O)[C@@H](OC5O[C@H](CO)[C@H](O)[C@H](O)[C@H]5O)[C@@H]4O)[C@@H]3O)/C=C/C=C/C=C/C=C/C=C/C=C/C=C/[C@H](C)[C@H]1O)O2` (some centres unmarked) [Compound 147], for which the MIC in the data set with C. albicans turned out to be 2 µg/mL (≈ 1.47 µM). Further, the NLD acute mice in data set [1] is less than 7.5 mg/kg.
